How the values were obtained:
p-EGFR = experiment: Western blot of whole cell lysates (cleaved EGFR, p-EGFR, CYP51A1) after drug treatment; assay type: cell-based, human; conditions: treated 48 hours
Experimental: Cells were treated with lapatinib or ketoconazole for 48 hours. The expression of cleaved EGFR, p-EGFR, CYP51A1 were examined using western blotting of the whole cell lysates. β-Actin was included as a loading control.

H1650 cells = experiment: Development of lapatinib resistance in parental H1650 cells, bright field microscopy; assay type: cell-based, human; conditions: drugs added at plating, 72 hours
Experimental: Drug-resistant cells (DR) were compared to parental cell lines. 500,000 H1650 cells were plated in 1 well of a 6-well plate and treated with the indicated drugs at the time of plating. They were allowed to grow for 72 hours.

[1] = tested on: H1975, H1650 and H1299 human lung cancer cell lines (parental and drug resistant); experiment: Drug sensitivity in parental and DR cell lines, Cell Titer Glo cell viability; assay type: cell-based
Experimental: To investigate drug resistance to EGFR TKIs, we developed lapatinib resistant human lung cancer cell lines as model for de novo drug resistance. To derive drug resistant (DR) cells, H1975 human lung cancer cells, that carry L858R and T790M point mutations in exons 20 and 21 of EGFR, were grown in a static concentration of lapatinib for up to 30 days. We also developed EGFR TKI resistant H1650 and H1299 human lung cancer cell lines to confirm any potential findings in cell lines with different EGFR mutations, thereby enhancing the reproducibility and relevance of the work. The drug sensitivity of the parental and DR cells on both the monolayer and the 3D scaffold were determined by testing a panel of standard-of-care chemotherapeutics along with EGFR TKIs. Drug sensitivity in parental- and DR-cell lines were determined. Cells were treated in triplicates with indicated concentrations of the identified drug for 72 hours in monolayer cultures and for 48 hours in scaffold cultures. For cells grown on the scaffold, drugs were added on day 3, as compared to 24 hours for monolayer. Cell viability was determined using Cell Titer Glo assay (Promega). Average luminescence as a percentage of control in lapatinib treated cultures on the monolayer (Blue) and the scaffold (Red) is shown. Experiments were repeated at least two times. […]

SMILES | p-EGFR in the H1650-DR cells (p-EGFR; H1650-DR cells, western blot) | EGFR downstream signaling (p-EGFR; western blot of whole cell lysates) | development of lapatinib resistance in parental H1650 cells (H1650 cells) | resistance of EGFR TKI resistant cells to other anti-cancer agents [1]
CC(=O)N1CCN(c2ccc(OCC3COC(Cn4ccnc4)(c4ccc(Cl)cc4Cl)O3)cc2)CC1 (centres unmarked) [ketoconazole] | inhibited p-EGFR | induced lowering of EGFR downstream signaling | alleviated development of lapatinib resistant | 
Nc1ccn([C@@H]2O[C@H](CO)[C@@H](O)C2(F)F)c(=O)n1 [gemcitabine] |  |  |  | resistant
CC(=O)O[C@H]1C(=O)[C@@]2(C)[C@H]([C@H](OC(=O)c3ccccc3)[C@]3(O)C[C@H](OC(=O)[C@H](O)[C@@H](NC(=O)c4ccccc4)c4ccccc4)C(C)=C1C3(C)C)[C@]1(OC(C)=O)CO[C@@H]1C[C@@H]2O [taxol] |  |  |  | resistant

From patent publication US10813935B2, “Methods and compositions for treating drug resistance in cancer” (UNIVERSITY OF SOUTH FLORIDA, priority 2017, dated 2020)
